In the supplement of paper PMC10883282:

Columns and labels:
Experiment in all cases: relative viability vs DMSO control (72 h) (fraction); higher = more viable cells
SW684 = system: SW684
Method in brief: (§1)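 Sarcoma cell lines were seeded in 384-well plates at densities set to reach 80–90% confluence. After 24 h, 2.5 µl of serially diluted compound was added (source plates 10 mM to 0.0002 mM), and plates were held 72 h at 37 °C, 5% CO2, with 0.1% DMSO vehicle and a 5 µM positive control. Relative viability came from ATPLite readings as percent growth, averaged over up to triplicate wells. Data were rescaled so full viability equals 1 and none equals 0.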

KHOS-NP = system: KHOS-NP
Method in brief: as §1

SW872 = system: SW872
Method in brief: as §1

A204 = system: A204
Method in brief: as §1

HS729 = system: HS729
Method in brief: as §1

CC(C)Oc1ccc(-c2nn([C@@H](C)c3oc4ccc(F)cc4c(=O)c3-c3cccc(F)c3)c3ncnc(N)c23)cc1F [Umbralisib]
relative viability
Conditions | A204 | HS729 | KHOS-NP | SW684 | SW872
0.00017 µM | 1.08 | 1.09 | 1.091 | 1.13 | 1.09
0.00051 µM | 1.11 | 1.09 | 1.085 | 1.17 | 1.09
0.00152 µM | 1.12 | 1.05 | 1.095 | 1.16 | 1.1
0.00457 µM | 1.12 | 1.04 | 1.1 | 1.21 | 1.08
0.01372 µM | 1.08 | 1.05 | 1.1 | 1.2 | 1.11
0.04115 µM | 1.09 | 0.991 | 1.09 | 1.19 | 1.087
0.1235 µM | 1.08 | 1.04 | 1.11 | 1.16 | 1.07
0.3704 µM | 1.07 | 1.01 | 1.08 | 1.06 | 1.07
1.111 µM | 0.986 | 0.942 | 1.1 | 0.966 | 1.09
3.333 µM | 1.02 | 0.936 | 1.1 | 0.9274 | 1.095
10 µM | 0.9 | 0.895 | 1.077 | 0.882 | 1.04

CC[C@@H]1CN(C(=O)NCC(F)(F)F)C[C@@H]1c1cnc2cnc3[nH]ccc3n12 [Upadacitinib]
relative viability
Conditions | A204 | HS729 | KHOS-NP | SW684 | SW872
0.00017 µM | 1.05 | 1.02 | 1.07 | 1.1 | 1.07
0.00051 µM | 1.1 | 0.954 | 1.09 | 1.19 | 1.07
0.00152 µM | 1.1 | 0.973 | 1.07 | 1.18 | 1.07
0.00457 µM | 1.07 | 0.97 | 1.08 | 1.18 | 1.03
0.01372 µM | 1.05 | 0.931 | 1.08 | 1.17 | 1.03
0.04115 µM | 1.05 | 0.946 | 1.088 | 1.16 | 1.01
0.1235 µM | 1.07 | 0.895 | 1.07 | 1.18 | 1.01
0.3704 µM | 1.03 | 0.837 | 1.06 | 1.13 | 0.963
1.111 µM | 1.03 | 0.834 | 1.03 | 1.17 | 1
3.333 µM | 0.945 | 0.805 | 0.965 | 1.11 | 0.97
10 µM | 0.832 | 0.761 | 0.912 | 1.03 | 0.85

Clc1ccc(Nc2nnc(Cc3ccncc3)c3ccccc23)cc1 [Vatalanib]
relative viability
Conditions | A204 | HS729 | KHOS-NP | SW684 | SW872
0.00017 µM | 1.05 | 0.874 | 1.041 | 1.13 | 1.01
0.00051 µM | 1.09 | 0.906 | 1.054 | 1.0999 | 1.01
0.00152 µM | 1.04 | 0.915 | 1.04 | 1.09 | 1.02
0.00457 µM | 1.03 | 0.88 | 1.06 | 1.11 | 1.026
0.01372 µM | 1.04 | 0.916 | 1.03 | 1.11 | 0.9937
0.04115 µM | 1.02 | 0.896 | 1.05 | 1.1 | 1.02
0.1235 µM | 0.972 | 0.864 | 1.058 | 1.08 | 1.022
0.3704 µM | 0.904 | 0.871 | 1.062 | 1.12 | 1.021
1.111 µM | 0.7796 | 0.832 | 1.07 | 1.09 | 1.02
3.333 µM | 0.483 | 0.898 | 1.07 | 1.03 | 1.03
10 µM | 0.365 | 0.934 | 1.08 | 1.03 | 0.971
